Consider 37 molecules from patent US7365200B2, “Thienopyridinone derivatives as macrophage migration inhibitory factor inhibitors” (Avanir Pharmaceuticals, priority 2005, dated 2008).

The target of the first data set is T1, MIF produced by THP-1 cells (Homo sapiens, UniProt P14174).
T1 construct: THP-1 cell supernatant was collected and incubated with a candidate compound; endogenous in cells; host or cells: THP-1 cells, LPS-stimulated, culture supernatant
T1 sequence (P14174 2-115 limits assumed): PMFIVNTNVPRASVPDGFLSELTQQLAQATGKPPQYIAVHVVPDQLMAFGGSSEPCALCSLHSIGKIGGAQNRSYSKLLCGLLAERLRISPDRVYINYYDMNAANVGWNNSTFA
Nature of the data set: Antibody binding assay of MIF inhibitors (ELISA, 96-well format). As to conditions: LPS-stimulated THP-1 cell supernatant incubated with compound; MIF monoclonal antibody capture ELISA; read-out: In vitro MIF IC50. On the procedure: An antibody binding assay for MIF inhibitors was performed on selected compounds in a 96-well format using MIF produced by THP-1 cells. The THP-1 cells were washed once with 250 μl of 0.1 M sodium carbonate, pH 11.4, for 1 to 2 minutes and immediately aspirated. The THP-1 cells were then washed with media containing 0.5% FBS plus 25 μg/ml heparin and then incubated in this same medium for the indicated lengths of time. The THP-1 cells were resuspended to approx. 5×10^6 cells/ml in RPMI medium containing 20 μg/ml of bacterial LPS and incubated for 18-20 hours, after which THP-1 cell supernatant was collected and incubated with a candidate compound. A 96-well ELISA plate (Costar Number 3590) was coated with a MIF monoclonal antibody (R&D Systems Catalog Number MAB289) at a concentration of 4 μg/ml for two hours at 37° C. Undiluted THP-1 cell culture supernatant incubated with the candidate compound was added to the ELISA plate for a two-hour incubation at room temperature. The wells were then washed, a biotinylated MIF polyclonal antibody (R&D Systems #AF-289-PB) was added followed by Streptavidin-HRP and a chromogenic substrate. The amount of MIF was calculated by interpolation from an MIF standard curve.
On the technique in general: ELISA stands for enzyme-linked immunosorbent assay.
By IC50 is commonly meant the concentration that inhibits the measured activity by half. Consider `CCOC(=O)c1c(N2CCN(C(=O)c3cccs3)CC2)c2cc(C)sc2n(Cc2cccc(F)c2)c1=O` [Compound 127], for which the IC50 came out at 0.032 µM.

As for `N#Cc1c(N2CCN(C(=O)c3cccs3)CC2)c2ccsc2n(Cc2ccccc2)c1=O` [Compound 116], the IC50 is 0.139 µM.

Consider `CCOC(=O)c1c(N2CCN(C(=O)c3cccs3)CC2)c2cscc2n(Cc2ccc(F)cc2)c1=O` [Compound 106], for which the IC50 was 0.04 µM. The same measure, in the same setting: to `CCOC(=O)c1c(N2CCN(C(=O)c3cccs3)CC2)c2sccc2n(Cc2cccc(F)c2)c1=O` [Compound 121] belongs 0.146 µM. `CCOC(=O)c1c(N2CCN(C(=O)c3ccc(F)s3)CC2)c2sccc2n(Cc2cccc(F)c2)c1=O` [Compound 126]: the IC50 came out at 0.648 µM. On the same count and under the same terms, for `N#Cc1c(N2CCN(C(=O)c3cccs3)CC2)c2cscc2n(CC(=O)c2ccccc2)c1=O` [Compound 101] the value was 0.07 µM; for `CC(C)OC(=O)c1c(N2CCN(C(=O)c3cccs3)CC2)c2sccc2n(Cc2cccc(F)c2)c1=O` [Compound 125], 0.387 µM.

Turning to `Cc1csc2c1c(N1CCN(C(=O)c3cccs3)CC1)c(C#N)c(=O)n2Cc1ccccc1` [Compound 117], the IC50 is 12.3 µM.

With `CCOC(=O)c1c(N2CCN(C(=O)c3cccs3)CC2)c2cscc2n(Cc2ccc(C(=O)OC)cc2)c1=O` [Compound 107], the IC50 came out at 0.035 µM. On to `COC(=O)c1ccc(Cn2c(=O)c(C#N)c(N3CCN(C(=O)c4cccs4)CC3)c3cscc32)cc1` [Compound 103], for which the IC50 stood at 0.437 µM. For `CCOC(=O)c1c(N2CCN(C(=O)c3ccco3)CC2)c2sccc2n(Cc2ccc(F)cc2)c1=O` [Compound 119], the IC50 came to 4.15 µM. Still for that read-out and setting: to `CCOC(=O)c1c(N2CCN(C(=O)c3ccco3)CC2)c2sccc2n(Cc2cccc(F)c2)c1=O` [Compound 122] belongs 5.84 µM; to `CCOC(=O)c1c(N2CCN(C(=O)c3cccs3)CC2)c2c(C)csc2n(Cc2ccccc2)c1=O` [Compound 115], 11.8 µM; to `CCOC(=O)c1c(N2CCN(C(=O)c3cccs3)CC2)c2cscc2n(CC(=O)c2ccccc2)c1=O` [Compound 105], 0.053 µM. For `CCOC(=O)c1c(N2CCN(C(=O)c3cccs3)CC2)c2sccc2n(CC(=O)c2ccccc2)c1=O` [Compound 120], the IC50 is 0.799 µM. For the molecule `CCOC(=O)c1c(N2CCN(C(=O)c3cccs3)CC2)c2sccc2n(Cc2ccc(F)cc2)c1=O` [Compound 109], the IC50 stood at 0.233 µM. The same measure, in the same setting: for `CCOC(=O)c1c(N2CCN(C(=O)c3cccs3)CC2)c2sccc2n(Cc2cccnc2)c1=O` [Compound 124] the value was 0.269 µM; for `CCOC(=O)c1c(N2CCN(C(=O)c3cccs3)CC2)c2ccsc2n(Cc2ccccc2)c1=O` [Compound 114], 0.07 µM. In the case of `N#Cc1c(N2CCN(C(=O)c3cccs3)CC2)c2cscc2n(Cc2cccnc2)c1=O` [Compound 104], the IC50 came to 0.059 µM. Same read-out and setting: to `N#Cc1c(N2CCN(C(=O)c3cccs3)CC2)c2sccc2n(Cc2cccnc2)c1=O` [Compound 111] belongs 0.254 µM; to `CCOC(=O)c1c(N2CCN(C(=O)c3ccco3)CC2)c2sccc2n(CC(=O)c2ccccc2)c1=O` [Compound 123], 8.77 µM. In the case of `N#Cc1c(N2CCN(C(=O)c3cccs3)CC2)c2cscc2n(Cc2ccc(F)cc2)c1=O` [Compound 102], the IC50 is 0.082 µM. Same read-out and setting: for `N#Cc1c(N2CCN(C(=O)c3cccs3)CC2)c2sccc2n(Cc2ccc(F)cc2)c1=O` [Compound 113] the value was 0.419 µM; for `N#Cc1c(N2CCN(C(=O)c3cccs3)CC2)c2sccc2n(Cc2cccc(F)c2)c1=O` [Compound 112], 0.595 µM. `N#Cc1c(N2CCN(C(=O)c3cccs3)CC2)c2cscc2n(-c2cccnc2)c1=O` [Compound 108]: the IC50 is 0.171 µM. Same read-out and setting: for `N#Cc1c(N2CCN(C(=O)c3cccs3)CC2)c2sccc2n(CC(=O)c2ccccc2)c1=O` [Compound 110] the value was 1.73 µM.

System in the next data set: not given
Assay: not given
Conditions: not given
In general, melting point refers to the temperature, or range, at which the solid turns liquid. For `CCOC(=O)c1c(N2CCN(C(=O)c3ccco3)CC2)c2sccc2n(CC(=O)c2ccccc2)c1=O` [Compound 13, 7-[4-(furan-2-carbonyl)-piperazin-1-yl]-5-oxo-4-(2-oxo-2-phenyl-ethyl)-4,5-dihydro-thieno[3,2-b]pyridine-6-carboxylic acid ethyl ester], the melting point is 246 °C. The same measure, in the same setting: to `N#Cc1c(N2CCN(C(=O)c3cccs3)CC2)c2cscc2n(Cc2ccc(F)cc2)c1=O` [Compound 49, 4-(4-fluoro-benzyl)-5-oxo-7-[4-(thiophene-2-carbonyl)-piperazin-1-yl]-4,5-dihydro-2-thia-4-aza-indene-6-carbonitrile] belongs 238 °C; to `COC(=O)c1ccc(Cn2c(=O)c(C#N)c(N3CCN(C(=O)c4cccs4)CC3)c3cscc32)cc1` [Compound 50, 4-{6-cyano-5-oxo-7-[4-(thiophene-2-carbonyl)-piperazin-1-yl]-5H-2-thia-4-aza-indene-4-ylmethyl}-benzoic acid methyl ester], 263 °C. Same read-out and setting: to `CCOC(=O)c1c(N2CCN(C(=O)c3cccs3)CC2)c2cscc2n(Cc2ccc(F)cc2)c1=O` [Compound 42, 4-(4-fluoro-benzyl)-5-oxo-7-[4-(thiophene-2-carbonyl)-piperazin-1-yl]-4,5-dihydro-2-thia-4-aza-indene-6-carboxylic acid ethyl ester] belongs 227 °C. Take `N#Cc1c(N2CCN(C(=O)c3cccs3)CC2)c2cscc2n(CC(=O)c2ccccc2)c1=O` [Compound 48, 5-oxo-4-(2-oxo-2-phenyl-ethyl)-7-[4-(thiophene-2-carbonyl)-piperazin-1-yl]-4,5-dihydro-2-thia-4-aza-indene-6-carbonitrile]: the melting point came to 308 °C. The same measure, in the same setting: for `CCOC(=O)c1c(N2CCN(C(=O)c3cccs3)CC2)c2sccc2n(CC(=O)c2ccccc2)c1=O` [Compound 7, 5-oxo-4-(2-oxo-2-phenyl-ethyl)-7-[4-(thiophene-2-carbonyl)-piperazin-1-yl]4,5-dihydro-thieno[3,2-b]pyridine-6-carboxylic acid ethyl ester] the value was 240 °C; for `N#Cc1c(N2CCN(C(=O)c3cccs3)CC2)c2sccc2n(Cc2ccc(F)cc2)c1=O` [Compound 28, 4-(4-fluoro-benzyl)-5-oxo-7-[4-(thiophene-2-carbonyl)-piperazin-1-yl]-4,5-dihydro-thieno[3,2-b]pyridine-6-carbonitrile], 286 °C; for `N#Cc1c(N2CCN(C(=O)c3cccs3)CC2)c2cscc2n(-c2cccnc2)c1=O` [Compound 52, 5-oxo-4-pyridine-3-yl-7-[4-(thiophene-2-carbonyl)-piperazin-1-yl]-4,5-dihydro-2-thia-4-aza-indene-6-carbonitrile], 282 °C. Still for that read-out and setting: for `Cc1csc2c1c(N1CCN(C(=O)c3cccs3)CC1)c(C#N)c(=O)n2Cc1ccccc1` [Compound 67, 7-benzyl-3-methyl-6-oxo-4-[4-(thiophene-2-carbonyl)-piperazin-1-yl]-6,7-dihydro-thieno[2,3-b]pyridine-5-carbonitrile] the value was 223 °C; for `N#Cc1c(N2CCN(C(=O)c3cccs3)CC2)c2sccc2n(CC(=O)c2ccccc2)c1=O` [Compound 30, 5-oxo-4-(2-oxo-2-phenyl-ethyl)-7-[4-(thiophene-2-carbonyl)-piperazin-1-yl]-4,5-dihydro-thieno[3,2-b]pyridine-6-carbonitrile], 300 °C. Still for that read-out and setting: for `CCOC(=O)c1c(N2CCN(C(=O)c3cccs3)CC2)c2sccc2n(Cc2cccc(F)c2)c1=O` [Compound 9, 4-(3-fluoro-benzyl)-5-oxo-7-[4-(thiophene-2-carbonyl)-piperazin-1-yl]-4,5-dihydro-thieno[3,2-b]pyridine-6-carboxylic acid ethyl ester] the value was 95 to 113 °C.
